The values below come from US8772302B2, “GPR 119 agonists” (Cadila Healthcare Limited, priority 2009, dated 2014).

The EC50 is the concentration giving half of the maximal effect.

Read-outs that look alike come from different tables or passages of the source.

Test [1] concerns the target T1, recombinant human GPR 119 receptor (Homo sapiens, UniProt Q8TDV5).
T1 construct: expressed in transfected cells
T1 sequence (Q8TDV5 1-335): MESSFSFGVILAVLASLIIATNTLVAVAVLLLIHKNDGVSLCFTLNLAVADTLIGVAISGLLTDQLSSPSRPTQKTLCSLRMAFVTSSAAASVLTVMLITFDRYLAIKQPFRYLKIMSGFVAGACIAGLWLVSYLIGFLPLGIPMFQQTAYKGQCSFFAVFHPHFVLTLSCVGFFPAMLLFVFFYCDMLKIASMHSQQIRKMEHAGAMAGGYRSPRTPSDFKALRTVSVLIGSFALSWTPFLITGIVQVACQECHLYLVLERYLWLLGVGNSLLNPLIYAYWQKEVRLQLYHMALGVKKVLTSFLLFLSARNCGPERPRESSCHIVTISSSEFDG
The test can be described thus: cAMP assay in stable cell line expressing recombinant human GPR 119 receptor. To be noted: intracellular cAMP. The test is classed as cell-based. The text has this:
cAMP assay: A stable cell line expressing recombinant human GPR 119 receptor was established and used to investigate the efficacy of the compounds of the invention based on the intracellular levels of cyclic AMP (cAMP) using commercially available cAMP kits. Compounds of the invention produced a concentration dependent increase in cAMP level and EC50 values of representative compounds were provided in table 1.

Another test deals with Sprague Dawley rats. The test can be described thus: Feed intake in Sprague Dawley rats. It counts as in vivo, rat. As to conditions: Rattus norvegicus, oral, 50 mg/kg, cumulative feed intake vs vehicle. The gist of the method:
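Sprague Dawley rats aged 6-8 weeks, kept 15 days on a reversed light/dark cycle and trained 5 days on fasting-induced feeding. Dosed orally or intraperitoneally; chow offered 30 min after dosing. Cumulative intake measured at 2, 4, 6 and 24 h and compared with vehicle controls.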

The test system of another test is C57/BL6 mice. The test can be described thus: Oral glucose tolerance test (OGTT) in C57/BL6 mice. The test is classed as in vivo, mouse. As to conditions: Mus musculus, 2 h, serum glucose AUC, single oral dose, glucose load 3 gm/kg, read-out: % reduction in AUC at 50 mg/kg. On the procedure:
Oral Glucose Tolerance Tests (OGTT) in C57/BL6 Mice:
C57/BL6 mice of 6-8 week age are used for this experiment. Animals are grouped based on non-fasting serum glucose levels and kept on fasting for overnight (day before OGTT). On the experiment day, […], 30 min post dosing animals are bled for basal glucose level estimation and at the same time glucose load (3 gm/kg) will be administered per orally. Blood is collected at time points corresponding to 20, 40, 60 and 120 min after glucose load administration. Serum is separated for determination of glucose levels and change in area under curve for glucose is calculated and provided in table 4 as % reduction in AUC.

With `Cc1c(Oc2ccc(C[C@H]3CO[S@](=O)OC3)cc2)ncnc1OC1CCN(C(=O)OCC(C)C)CC1` [Example 44, trans-isobutyl 4-((5-methyl-6-(4-((2-oxido-1,3,2-dioxathian-5-yl)methyl)phenoxy)pyrimidin-4-yl)oxy)piperidine-1-carboxylate], in test [1], the EC50 worked out at 108 nM. For the same compound, the inhibition in vivo at 50 mg/kg in the test with Sprague Dawley rats (2 hour, read-out: % reduction in food in take, 2 hour) came to 38%; in the test on Sprague Dawley rats (4 hour, read-out: % reduction in food in take, 4 hour), 30%; with Sprague Dawley rats (6 hour, read-out: % reduction in food in take, 6 hour), 24%; in the test on Sprague Dawley rats (24 hour, read-out: % reduction in food in take, 24 hour), 7%; in the test on C57/BL6 mice it was 31%.
